Test system: IMR-90 human lung fibroblasts
Test: IMR-90 fibroblast culture with peptides, gelatin or collagen added to media
Assay type: cell-based
Settings: 30 μg/mL added to media, imaged after three days at 37° C.
Method: IMR-90 human lung fibroblasts were purchased from ITCC. Cells were thawed and cultured in EMEM supplemented with 10% FBS and 1% Pen-Strep. Cells were cultured to 80-95% confluency then sub-cultured for three passages prior to utilization in experiments.
Experimental wells were prepared by adding 100 μL cell media to wells of a 96-well gelatin coated plate (corning) or 300 μL media to the wells of a 48-well uncoated cell culture plate. Peptides, as listed below, were added to each well (5 μL to 96 well plates, 10 μL to 48 well plates).
During passaging, cells were quantified, and 2100 IMR-90 cells were added to each well of the 96 well gelatin-coated plate. For the uncoated plate IMR-90 cells were added to each well. Additional media was added to bring the volume to 200 μL (96 well) or 500 μL (48 well). Cells were cultured at 37° C., 5% CO2 for three days then imaged. […] Media was added one day later (day 4) then allowed to culture an additional 2 days before imaging and lysing cells. qPCR was performed on cell lysate following cDNA synthesis (cell-to-CT kit, Thermo Fisher scientific).

Substance	confluence and directionality of cell growth
collagen	higher confluence and more directionality in cell growth
gelatin	higher confluence and more directionality in cell growth

— patent US20240400647A1, “Biologically Active Collagen Hybridizing Peptides” (3HELIX, INC., priority 2021, published 2024)
